Measured values reported in PubChem BioAssay AID1963984 (Molecular Pharmacology Branch, DTP, NCI, 2024).
pIC50: −log10 of the molar value.

Test system: 233499-124-R-J3-PDC spheroids with HUVEC/MSC, viability
Experiment: Anticancer human tumor 233499-124-R-J3-PDC patient-derived colon adenocarcinoma cell line growth inhibition [PI3K]
Conditions: for pIC50: curve of first compound; for viability, T/C: stronger effect = lower value
How it was run: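 Viability of mixed-cell spheroids was determined after exposure to pairwise combinations, one partner being inavolisib, alpelisib, duvelisib or copanlisib. Highest tested concentration matched clinical Cmax where known and 10 microM where not, descending in half-log steps.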

[1] = second compound 0.0316 µM, first compound 0.0316 µM
[2] = second compound 0.0316 µM, first compound 0.1 µM
[3] = second compound 0.0316 µM, first compound 0.316 µM
[4] = second compound 0.0316 µM, first compound 1 µM
[5] = second compound 0.1 µM, first compound 0.0316 µM
[6] = second compound 0.1 µM, first compound 0.1 µM
[7] = second compound 0.1 µM, first compound 0.316 µM
[8] = second compound 0.1 µM, first compound 1 µM
[9] = second compound 0.316 µM, first compound 0.0316 µM
[10] = second compound 0.316 µM, first compound 0.1 µM
[11] = second compound 0.316 µM, first compound 0.316 µM
[12] = second compound 0.316 µM, first compound 1 µM
[13] = second compound 1 µM, first compound 0.0316 µM
[14] = second compound 1 µM, first compound 0.1 µM
[15] = second compound 1 µM, first compound 0.316 µM
[16] = second compound 1 µM, first compound 1 µM
[17] = second compound 0.00316 µM, first compound 0.00316 µM
[18] = second compound 0.00316 µM, first compound 0.01 µM
[19] = second compound 0.00316 µM, first compound 0.0316 µM
[20] = second compound 0.00316 µM, first compound 0.1 µM
[21] = second compound 0.00316 µM, first compound 0.316 µM
[22] = second compound 0.00316 µM, first compound 1 µM
[23] = second compound 0.01 µM, first compound 0.00316 µM
[24] = second compound 0.01 µM, first compound 0.01 µM
[25] = second compound 0.01 µM, first compound 0.0316 µM
[26] = second compound 0.01 µM, first compound 0.1 µM
[27] = second compound 0.01 µM, first compound 0.316 µM
[28] = second compound 0.01 µM, first compound 1 µM
[29] = second compound 0.0316 µM, first compound 0.00316 µM
[30] = second compound 0.0316 µM, first compound 0.01 µM
[31] = second compound 0.1 µM, first compound 0.00316 µM
[32] = second compound 0.1 µM, first compound 0.01 µM
[33] = second compound 0.316 µM, first compound 0.00316 µM
[34] = second compound 0.316 µM, first compound 0.01 µM
[35] = second compound 1 µM, first compound 0.00316 µM
[36] = second compound 1 µM, first compound 0.01 µM
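Also: spheroids exposed to agents for seven days before readout.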
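For viability, T/C in this document: percent viability relative to DMSO vehicle control taken as 100%.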

What does the source list for `Cn1nccc1Nc1nccc(-c2ccn(C(CO)c3ccc(Cl)c(F)c3)c(=O)c2)n1` (stereo unspecified) + Cc1nc(NC(=O)N2CCCC2C(N)=O)sc1-c1ccnc(C(C)(C)C(F)(F)F)c1?
pIC50 (second compound 0.0316 µM): < 5.00; pIC50 (second compound 0.1 µM): 5.06; pIC50 (second compound 0.316 µM): < 5.00; pIC50 (second compound 1 µM): 5.50; pIC50 (second compound 3.16 µM): 6.07; pIC50 (second compound 10 µM): > 7.50; viability, T/C [1]: 82.9%; viability, T/C [2]: 98.6%; viability, T/C [3]: 73%; viability, T/C [4]: 91.6%; viability, T/C (second compound 0.0316 µM, first compound 3.16 µM): 68.9%; viability, T/C (second compound 0.0316 µM, first compound 10 µM): 58.2%; viability, T/C [5]: 92.6%; viability, T/C [6]: 100%; viability, T/C [7]: 68.7%; viability, T/C [8]: 83.3%; viability, T/C (second compound 0.1 µM, first compound 3.16 µM): 82.7%; viability, T/C (second compound 0.1 µM, first compound 10 µM): 45.2%; viability, T/C [9]: 94.6%; viability, T/C [10]: 63.8%; viability, T/C [11]: 67.9%; viability, T/C [12]: 65.7%; viability, T/C (second compound 0.316 µM, first compound 3.16 µM): 57.7%; viability, T/C (second compound 0.316 µM, first compound 10 µM): 47.8%; viability, T/C [13]: 89.2%; viability, T/C [14]: 81.5%; viability, T/C [15]: 31.1%; viability, T/C [16]: 57.6%; viability, T/C (second compound 1 µM, first compound 3.16 µM): 52.3%; viability, T/C (second compound 1 µM, first compound 10 µM): 64.8%; viability, T/C (second compound 3.16 µM, first compound 0.0316 µM): 68.2%; viability, T/C (second compound 3.16 µM, first compound 0.1 µM): 58.7%; viability, T/C (second compound 3.16 µM, first compound 0.316 µM): 54.8%; viability, T/C (second compound 3.16 µM, first compound 1 µM): 53.8%; viability, T/C (second compound 3.16 µM, first compound 3.16 µM): 38.4%; viability, T/C (second compound 3.16 µM, first compound 10 µM): 34.8%; viability, T/C (second compound 10 µM, first compound 0.0316 µM): 33.8%; viability, T/C (second compound 10 µM, first compound 0.1 µM): 35.6%; viability, T/C (second compound 10 µM, first compound 0.316 µM): 46%; viability, T/C (second compound 10 µM, first compound 1 µM): 22.7%; viability, T/C (second compound 10 µM, first compound 3.16 µM): 14.5%; viability, T/C (second compound 10 µM, first compound 10 µM): 17.5%

`CCN1CCN(Cc2ccc(Nc3ncc(F)c(-c4cc(F)c5nc(C)n(C(C)C)c5c4)n3)nc2)CC1` + COc1c(OCCCN2CCOCC2)ccc2c3n(c(=NC(=O)c4cnc(N)nc4)nc12)CCN3 was tested. Which pIC50 (second compound 0.00316 µM) did it give?
The pIC50 was < 6.00.

And the pIC50 (second compound 0.01 µM)?
Its pIC50 is 6.09.

What about the pIC50 (second compound 0.0316 µM) of the same compound?
Its pIC50 is 6.48.

What about the pIC50 (second compound 0.1 µM) of the same compound?
Its pIC50 is 8.04.

And the pIC50 (second compound 0.316 µM)?
The pIC50 was > 8.50.

And the pIC50 (second compound 1 µM)?
The pIC50 was > 8.50.

What about the viability, T/C [17] of the same compound?
Its viability, T/C is 81.7%.

And the viability, T/C [18]?
The viability, T/C was 92%.

What about the viability, T/C [19] of the same compound?
Its viability, T/C is 79.2%.

What about the viability, T/C [20] of the same compound?
Its viability, T/C is 60.8%.

What about the viability, T/C [21] of the same compound?
The viability, T/C was 77.3%.

What about the viability, T/C [22] of the same compound?
The viability, T/C was 48.6%.

What about the viability, T/C [23] of the same compound?
The viability, T/C was 84.3%.

What about the viability, T/C [24] of the same compound?
The viability, T/C was 105%.

What about the viability, T/C [25] of the same compound?
The viability, T/C was 97%.

And the viability, T/C [26]?
Its viability, T/C is 83.6%.

And the viability, T/C [27]?
Its viability, T/C is 71.2%.

What about the viability, T/C [28] of the same compound?
Its viability, T/C is 45.5%.

What about the viability, T/C [29] of the same compound?
Its viability, T/C is 89.2%.

And the viability, T/C [30]?
Its viability, T/C is 85.6%.

And the viability, T/C [1]?
The viability, T/C was 80.9%.

And the viability, T/C [2]?
The viability, T/C was 57%.

What about the viability, T/C [3] of the same compound?
Its viability, T/C is 59.6%.

What about the viability, T/C [4] of the same compound?
Its viability, T/C is 23.7%.

What about the viability, T/C [31] of the same compound?
The viability, T/C was 81.3%.

And the viability, T/C [32]?
The viability, T/C was 46%.

And the viability, T/C [5]?
The viability, T/C was 49.2%.

What about the viability, T/C [6] of the same compound?
Its viability, T/C is 49.1%.

What about the viability, T/C [7] of the same compound?
Its viability, T/C is 44.4%.

And the viability, T/C [8]?
Its viability, T/C is 32%.

What about the viability, T/C [33] of the same compound?
The viability, T/C was 34.3%.

And the viability, T/C [34]?
The viability, T/C was 16.4%.

And the viability, T/C [9]?
Its viability, T/C is 30.5%.

And the viability, T/C [10]?
The viability, T/C was 20.7%.

What about the viability, T/C [11] of the same compound?
Its viability, T/C is 23.7%.

What about the viability, T/C [12] of the same compound?
Its viability, T/C is 22.9%.

And the viability, T/C [35]?
The viability, T/C was 8.08%.

What about the viability, T/C [36] of the same compound?
Its viability, T/C is 11.5%.

What about the viability, T/C [13] of the same compound?
Its viability, T/C is 10.4%.

And the viability, T/C [14]?
The viability, T/C was 9.39%.

And the viability, T/C [15]?
Its viability, T/C is 7.45%.

And the viability, T/C [16]?
Its viability, T/C is 11.2%.

`CCN1CCN(Cc2ccc(Nc3ncc(F)c(-c4cc(F)c5nc(C)n(C(C)C)c5c4)n3)nc2)CC1` + CC(Nc1ccc2c(c1)OCCn1cc(N3C(=O)OCC3C(F)F)nc1-2)C(N)=O was tested. Which pIC50 (second compound 0.00316 µM) did it give?
The pIC50 was < 6.00.

What about the pIC50 (second compound 0.01 µM) of the same compound?
The pIC50 was 6.17.

And the pIC50 (second compound 0.0316 µM)?
The pIC50 was 6.28.

And the pIC50 (second compound 0.1 µM)?
The pIC50 was 6.63.

What about the pIC50 (second compound 0.316 µM) of the same compound?
The pIC50 was 7.06.

What about the pIC50 (second compound 1 µM) of the same compound?
Its pIC50 is 8.36.

And the viability, T/C [17]?
The viability, T/C was 68.8%.

And the viability, T/C [18]?
The viability, T/C was 98.9%.

And the viability, T/C [19]?
The viability, T/C was 94%.

And the viability, T/C [20]?
The viability, T/C was 73.7%.

What about the viability, T/C [21] of the same compound?
Its viability, T/C is 59.5%.

And the viability, T/C [22]?
Its viability, T/C is 49.7%.

And the viability, T/C [23]?
Its viability, T/C is 106%.

What about the viability, T/C [24] of the same compound?
The viability, T/C was 95.8%.

What about the viability, T/C [25] of the same compound?
The viability, T/C was 89.7%.

And the viability, T/C [26]?
The viability, T/C was 85.4%.

What about the viability, T/C [27] of the same compound?
Its viability, T/C is 79.9%.

What about the viability, T/C [28] of the same compound?
The viability, T/C was 35.7%.

What about the viability, T/C [29] of the same compound?
Its viability, T/C is 90.2%.

And the viability, T/C [30]?
Its viability, T/C is 85.2%.

What about the viability, T/C [1] of the same compound?
The viability, T/C was 82%.

And the viability, T/C [2]?
Its viability, T/C is 91.6%.

And the viability, T/C [3]?
Its viability, T/C is 58.5%.

And the viability, T/C [4]?
The viability, T/C was 39.3%.

What about the viability, T/C [31] of the same compound?
The viability, T/C was 87.8%.

What about the viability, T/C [32] of the same compound?
The viability, T/C was 90.8%.

And the viability, T/C [5]?
The viability, T/C was 73.8%.

And the viability, T/C [6]?
The viability, T/C was 79%.

And the viability, T/C [7]?
The viability, T/C was 39.4%.

And the viability, T/C [8]?
The viability, T/C was 40.8%.

And the viability, T/C [33]?
The viability, T/C was 73.2%.

What about the viability, T/C [34] of the same compound?
The viability, T/C was 72.7%.

And the viability, T/C [9]?
The viability, T/C was 63%.

What about the viability, T/C [10] of the same compound?
Its viability, T/C is 51.1%.

And the viability, T/C [11]?
The viability, T/C was 31.2%.

What about the viability, T/C [12] of the same compound?
Its viability, T/C is 44.5%.

And the viability, T/C [35]?
The viability, T/C was 55.3%.

And the viability, T/C [36]?
The viability, T/C was 45.2%.

What about the viability, T/C [13] of the same compound?
Its viability, T/C is 32.2%.

And the viability, T/C [14]?
Its viability, T/C is 48.9%.

And the viability, T/C [15]?
The viability, T/C was 42.6%.

And the viability, T/C [16]?
Its viability, T/C is 27.8%.
